Structures are written as SMILES. The source made the active and inactive calls. The rule behind the calls is not given here.

Series [1] concerns UMSCC1. Briefly: Inhibition of cell proliferation in human UMSCC1 cells for 24 hrs by Celltiter Glo assay. The class given is functional, cell-based. Background: ATP-based viability assays read luminescence as a measure of living cells.
Series [2] relates to UMSCC23. Briefly: Inhibition of cell proliferation in human UMSCC23 cells for 24 hrs by Celltiter Glo assay. It counts as functional, cell-based.
Series [3] deals with T1, Threonine--tRNA ligase 1, cytoplasmic (Homo sapiens) (UniProt P26639).
T1 sequence (whole entry): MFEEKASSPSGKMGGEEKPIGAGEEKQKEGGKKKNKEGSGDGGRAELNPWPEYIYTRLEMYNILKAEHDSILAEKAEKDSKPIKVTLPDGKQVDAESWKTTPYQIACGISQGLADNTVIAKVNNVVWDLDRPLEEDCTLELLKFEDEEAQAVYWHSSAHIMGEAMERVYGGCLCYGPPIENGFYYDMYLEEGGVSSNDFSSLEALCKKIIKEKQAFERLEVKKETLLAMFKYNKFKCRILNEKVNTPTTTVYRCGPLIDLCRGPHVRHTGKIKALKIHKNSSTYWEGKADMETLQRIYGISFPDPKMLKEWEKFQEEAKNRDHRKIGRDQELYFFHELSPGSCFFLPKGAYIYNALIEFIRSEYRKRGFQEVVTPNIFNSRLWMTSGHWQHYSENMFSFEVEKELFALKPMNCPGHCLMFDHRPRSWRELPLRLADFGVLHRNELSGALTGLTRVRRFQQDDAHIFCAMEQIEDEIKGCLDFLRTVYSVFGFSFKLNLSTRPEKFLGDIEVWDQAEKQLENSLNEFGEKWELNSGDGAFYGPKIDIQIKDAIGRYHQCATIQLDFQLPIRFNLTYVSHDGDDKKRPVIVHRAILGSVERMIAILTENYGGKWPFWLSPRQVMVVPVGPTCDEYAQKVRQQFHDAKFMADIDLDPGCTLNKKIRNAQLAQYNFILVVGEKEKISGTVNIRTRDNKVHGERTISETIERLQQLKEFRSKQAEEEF
Briefly: Inhibition of ThRS in human UMSCC1 cells assessed as increase in ATF3 mRNA level at 5 uM after 6 hrs by RT-qPCR analysis. The class given is cell-based. On the technique in general: In qPCR the cycle at which signal appears reflects the starting amount.

The target in series [4] is T1, Threonine--tRNA ligase 1, cytoplasmic (Homo sapiens). Briefly: Inhibition of ThRS in human UMSCC1 cells assessed as increase in XBP1 splicing by RT-PCR analysis. The class given is cell-based.
The nature of series [5]: Cytotoxicity against HEK cells after 24 hrs by CelltiterGlo assay. It counts as cell-based. The settings on record: human, hek293, 24 h.
In series [6] the test system is UMSCC14A. Briefly: Inhibition of cell proliferation in human UMSCC14A cells for 24 hrs by Celltiter Glo assay. It counts as functional, cell-based.
For series [7], the target named is T1, Threonine--tRNA ligase 1, cytoplasmic (Homo sapiens). Briefly: Inhibition of ThRS in human UMSCC1 cells assessed as increase in CHOP mRNA level at 5 uM after 6 hrs by RT-qPCR analysis. The class given is cell-based.
Series [8] shares this target. Briefly: Inhibition of ThRS in human UMSCC1 cells assessed as increase in apoptosis-related gene expression at 10 uM by RT-PCR analysis. It counts as cell-based.
Series [9] has the same target. Briefly: Inhibition of ThRS in human UMSCC1 cells assessed as increase in ATF4 mRNA level at 5 uM after 6 hrs by RT-qPCR analysis. The class given is cell-based.
Series [10] has the same target. Briefly: Inhibition of ThRS in human UMSCC1 cells assessed as increase in DNA damaging-related gene expression at 10 uM by RT-PCR analysis. It counts as cell-based.
Series [11] has the same target. Briefly: Inhibition of ThRS in human UMSCC1 cells assessed as increase in UPR-related gene expression at 10 uM by RT-PCR analysis. The class given is cell-based.
Series [12] concerns UMSCC1. Briefly: Effect on Bip/GRP78 mRNA level in human UMSCC1 cells at 5 uM after 6 hrs by RT-qPCR analysis. The class given is functional, cell-based.
The subject of series [13] is MEF. Briefly: Inhibition of cell proliferation in mouse MEF cells expressing Atf4(-/-) after 16 hrs CelltiterGlo assay. It counts as functional, cell-based.
The target of series [14] is T2, Threonine--tRNA ligase 1, cytoplasmic (Mus musculus) (UniProt Q9D0R2).
T2 sequence (whole entry): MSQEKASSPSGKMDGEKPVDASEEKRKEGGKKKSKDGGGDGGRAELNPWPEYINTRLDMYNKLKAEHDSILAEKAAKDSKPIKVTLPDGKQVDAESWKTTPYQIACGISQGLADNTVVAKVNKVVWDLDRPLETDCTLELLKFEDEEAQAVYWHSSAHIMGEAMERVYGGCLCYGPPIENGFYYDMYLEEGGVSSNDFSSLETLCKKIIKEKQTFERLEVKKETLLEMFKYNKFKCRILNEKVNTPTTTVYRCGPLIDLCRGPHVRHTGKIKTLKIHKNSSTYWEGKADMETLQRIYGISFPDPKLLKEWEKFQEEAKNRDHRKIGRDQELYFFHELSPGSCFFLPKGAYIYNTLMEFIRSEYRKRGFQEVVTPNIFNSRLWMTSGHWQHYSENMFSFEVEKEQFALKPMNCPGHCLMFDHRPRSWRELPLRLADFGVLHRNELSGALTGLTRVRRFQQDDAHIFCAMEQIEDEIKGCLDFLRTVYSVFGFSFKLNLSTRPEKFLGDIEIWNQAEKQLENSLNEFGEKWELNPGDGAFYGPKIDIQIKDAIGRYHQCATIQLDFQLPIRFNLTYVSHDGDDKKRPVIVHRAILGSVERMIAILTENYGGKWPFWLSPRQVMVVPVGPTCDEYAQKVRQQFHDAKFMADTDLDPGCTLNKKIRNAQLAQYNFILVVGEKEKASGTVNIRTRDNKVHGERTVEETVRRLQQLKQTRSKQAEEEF
The following applies: MEF, 5 uM.
Description: Inhibition of ThRs in mouse MEF cells expressing Gcn2 (-/-) assessed as effect on phosphorylated eIF2alpha level at 5 uM by immunoblot analysis

Series [15] deals with MEF. Briefly: Inhibition of cell proliferation in mouse MEF cells expressing Hri(-/-) after 16 hrs CelltiterGlo assay. It counts as functional, cell-based.
Series [16] relates to MEF. Briefly: Inhibition of cell proliferation in mouse MEF cells expressing Chop(-/-) after 16 hrs Celltiter Glo assay. It counts as functional, cell-based.
Series [17] deals with A549. Briefly: Inhibition of cell proliferation in human A549 cells expressing BAX/BAK (-/-) after 24 hrs by CelltiterGlo assay. The class given is functional, cell-based.
For series [18], the target named is T2, Threonine--tRNA ligase 1, cytoplasmic (Mus musculus). The following applies: MEF, 5 uM. The source holds these as a separate data set.
Description: Inhibition of ThRs in mouse MEF cells expressing Gcn2 (-/-) assessed as effect on Dr5 mRNA level at 5 uM by RT-PCR analysis
The target is the same in series [19]. The settings on record: MEF, 5 uM. This is another data set of the same source.
Description: Inhibition of ThRs in mouse MEF cells expressing Perk (-/-) assessed as effect on phosphorylated eIF2alpha level at 5 uM by immunoblot analysis
Series [20] deals with MEF. Briefly: Inhibition of cell proliferation in mouse MEF cells expressing eIF2alpha Ser51Ala mutant after 16 hrs Celltiter Glo assay. The class given is functional, cell-based.
For series [21], the target named is T2, Threonine--tRNA ligase 1, cytoplasmic (Mus musculus). The following applies: MEF, 5 uM. This is another data set of the same source.
Description: Inhibition of ThRs in mouse MEF cells expressing Gcn2 (-/-) assessed as effect on Puma mRNA level at 5 uM by RT-PCR analysis
Series [22] shares this target. The following applies: MEF, 5 uM. The source holds these as a separate data set.
Description: Inhibition of ThRs in mouse MEF cells expressing Perk (-/-) assessed as effect on Chop level at 5 uM by immunoblot analysis
For series [23] the target is unchanged. The following applies: MEF, 5 uM. This is another data set of the same source.
Description: Inhibition of ThRs in mouse MEF cells expressing Gcn2 (-/-) assessed as effect on Gadd45beta mRNA level at 5 uM by RT-PCR analysis
Series [24] shares this target. The settings on record: MEF, 5 uM. The source holds these as a separate data set.
Description: Inhibition of ThRs in mouse MEF cells expressing Gcn2 (-/-) assessed as effect on Noxa mRNA level at 5 uM by RT-PCR analysis
The target is the same in series [25]. The following applies: MEF, 5 uM. This is another data set of the same source.
Description: Inhibition of ThRs in mouse MEF cells expressing Gcn2 (-/-) assessed as effect on Chop level at 5 uM by immunoblot analysis
The subject of series [26] is MEF. Briefly: Inhibition of cell proliferation in mouse MEF cells expressing Pkr(-/-) after 16 hrs CelltiterGlo assay. It counts as functional, cell-based.
Series [27] addresses T2, Threonine--tRNA ligase 1, cytoplasmic (Mus musculus). The following applies: MEF, 5 uM. The source holds these as a separate data set.
Description: Inhibition of ThRs in mouse MEF cells expressing Gcn2 (-/-) assessed as effect on Trb3 mRNA level at 5 uM by RT-PCR analysis

On to `CC(=O)NC/C1=C/C=C/C[C@@H]([C@@H]2CCC[C@H]2C(N)=O)OC(=O)C[C@H](O)[C@@H](C)C[C@@H](C)C[C@@H](C)C[C@H](C)[C@H]1O`, for which the inhibition result in series [1], in series [2] and in series [6] was “inactive” each time. The outcome in series [3], in series [4], in series [7], in [8], in [9] and in [10] was inactive. For the same compound, the outcome in series [11] was inactive. Also, the Activity result in series [5] is “Toxic”.

Consider `C[C@@H]1C[C@H](C)C[C@H](C)[C@@H](O)CC(=O)O[C@H]([C@@H]2CCC[C@H]2C(N)=O)C/C=C/C=C(/C#N)[C@H](O)[C@@H](C)C1`, for which the inhibition result in [1], in [2] and in series [6] was “Active” throughout. Moreover, the result in series [3], in [4], in series [7] and in series [9] was Active. Further, the result in series [12], in series [8], in [10] and in series [11] was inactive. Moreover, in [5], the Activity entry was “Toxic”.

Regarding `C[C@@H]1C[C@H](C)C[C@H](C)[C@@H](O)CC(=O)O[C@H]([C@@H]2CCC[C@H]2C(=O)O)C/C=C/C=C(/C#N)[C@H](O)[C@@H](C)C1` [BORRELIDIN], the inhibition entry in series [13], in series [14], in [15], in [16], in [17] and in series [18] was “inactive” each time. For the same compound, the inhibition entry in [19], in series [21], in series [22], in series [23], in series [24] and in series [25] was “inactive” throughout. In addition, the inhibition result in series [26] and in series [27] was “inactive” each time. Also, the inhibition result in series [1], in series [2], in [20] and in series [6] was “Active” each time. Further, the outcome in series [3], in [4], in series [7], in series [8], in [9] and in [10] was Active. Further, the result in series [11] was Active. Moreover, the result in series [12] was inactive. Further, the Activity result in series [5] is on record as “Toxic”.

The values above are taken from ChEMBL document CHEMBL3751685, “Borrelidin Induces the Unfolded Protein Response in Oral Cancer Cells and Chop-Dependent Apoptosis” (ACS Med Chem Lett, 2015).
